In patent US12285012B2, “Compositions comprising pyridine carboxylate herbicides with acetolactate synthase (ALS) inhibitor herbicides” (Corteva Agriscience LLC, priority 2018, dated 2025):
Like-named read-outs stand apart in the source and are kept apart here.

How the values were obtained:
[1] = test system: wild mustard (SINAR, Sinapis arvensis); experiment: Greenhouse postemergence herbicidal effect; format: in vivo
Description: (§1) The plants were grown for 7-36 days (d) in a greenhouse with an approximate 14-hour (h) photo-period which was maintained at about 23° C. during the day and 22° C. during the night. Nutrients and water were added on a regular basis and supplemental lighting was provided with overhead metal halide 1000-Watt lamps as necessary. The plants were employed for testing when they reached the second or third true leaf stage.
(§2) The emulsifiable concentrates also included a safener, cloquintocet-mexyl, at 120 grams active ingredient per liter (g ai/L), unless otherwise noted below.
(§3) Control plants were sprayed in the same manner with the solvent blank. All pyridine carboxylate herbicide (component a) application rates are given as “g ae/ha” and all ALS inhibitor (component b) application rates are given as “g ai/ha.”
(§4) The treated plants and control plants were placed in a greenhouse as described above and watered by sub-irrigation to prevent wash-off of the test compounds. After 20-22 d, the condition of the test plants as compared with that of the control plants was determined visually and scored on a scale of 0 to 100 percent where 0 corresponds to no injury and 100 corresponds to complete kill.

[2] = test system: Russian thistle (SASKR, Salsola kali); experiment: Greenhouse postemergence herbicidal effect; format: in vivo
Description: as §1, §2, §3, §4

[3] = test system: wild chamomile (MATCH, Matricaria chamomilla); experiment: Greenhouse postemergence herbicidal effect; format: in vivo
Description: as §1, §2, §3, §4

[4] = test system: spring rape (BRSNN, Brassica napus); experiment: Greenhouse postemergence herbicidal effect; format: in vivo
Description: as §1, §2, §3, §4

[5] = test system: kochia (KCHSC, Kochia scoparia); experiment: Greenhouse postemergence herbicidal effect; format: in vivo
Description: (§5) Seeds of the desired test plant species were planted in a 90:10% v/v (volume/volume) mixture of PRO-MIX® BX (Premier Tech Horticulture, Quakertown, PA, USA) and PROFILE® GREENS GRADE™ (Profile Products LLC, Buffalo Grove, IL, USA) planting mixture, which typically has a pH of 5.2 to 6.2 and an organic matter content of at least 50 percent, in plastic pots with a surface area of 103.2 square centimeters (cm^2). […] The plants were grown for 7-36 days (d) in a greenhouse with an approximate 14-hour (h) photo-period which was maintained at about 23° C. during the day and 22° C. during the night. Nutrients and water were added on a regular basis and supplemental lighting was provided with overhead metal halide 1000-Watt lamps as necessary. The plants were employed for testing when they reached the second or third true leaf stage.
(§6) Emulsifiable concentrates of each of each pyridine carboxylate herbicide (Compound A or Compound B) were prepared at 100 grams acid equivalent per liter (g ae/L). The emulsifiable concentrates also included a safener, cloquintocet-mexyl, at 120 grams active ingredient per liter (g ai/L), unless otherwise noted below. An aliquot of each emulsifiable concentrate was placed in a 25 mL glass vial and diluted with an aqueous mixture of 1.25% (v/v) ACTIROB® B esterified rapeseed oil (Bayer Crop Science, Research Triangle Park, NC, USA) or MSO® Concentrate with LECI-TECH® methylated soybean oil (Loveland Products, Loveland, CO, USA) to obtain concentrated stock solutions at the highest application rate for each herbicide, based upon a 12 milliliter (mL) application volume at a rate of 187 liters per hectare (L/ha). The concentrated stock solutions were further diluted with an aqueous mixture of 1.25% v/v ACTIROB® B or MSO® Concentrate with LECI-TECH® to obtain stock solutions at reduced application rates for each herbicide. Spray solutions of the herbicide combinations (Compound A or Compound B plus ALS herbicide) were prepared by adding weighed amounts or aliquots of the ALS herbicides to the stock solutions of Compound A or Compound B to form 12-mL spray solutions in two- or three-way combinations.
(§7) The spray solutions were applied to the plant material with an overhead Mandel track sprayer equipped with 8002E nozzles calibrated to deliver 187 L/ha over an application area of 0.503 square meters (m^2) at a spray height of 18 inches (43 centimeters (cm)) above the average plant canopy. Control plants were sprayed in the same manner with the solvent blank. All pyridine carboxylate herbicide (component a) application rates are given as “g ae/ha” and all ALS inhibitor (component b) application rates are given as “g ai/ha.”
as §4

spring wheat (TRZAS) = format: in vivo, Triticum aestivum; conditions: for Obs % visual injury: TRZAS
Description: as §1, §2, §3, §4

spring barley (HORVS) = format: in vivo, Hordeum vulgare; conditions: for Obs % visual injury: HORVS
Description: as §1, §2, §3, §4

[6] = test system: Canadian thistle (CIRAR, Cirsium arvense); experiment: Greenhouse postemergence herbicidal effect; format: in vivo; conditions: for Obs % visual injury: CIRAR
Description: as §1, §2, §3, §4

[7] = test system: common lambsquarters (CHEAL, Chenopodium album L.); experiment: Greenhouse postemergence herbicidal effect; format: in vivo; conditions: for Obs % visual injury: CHEAL
Description: as §5, §6, §7, §4

[8] = test system: winter rape (BRSNW, Brassica napus); experiment: Greenhouse postemergence herbicidal effect; format: in vivo
Description: as §1, §2, §3, §4

[9] = test system: wild buckwheat (POLCO, Polygonum convolvulus); experiment: Greenhouse postemergence herbicidal effect; format: in vivo
Description: as §1, §2, §3, §4

[10] = test system: pigweed (AMARE, Amaranthus retroflexus); experiment: Greenhouse postemergence herbicidal effect; format: in vivo
Description: as §1, §2, §3, §4

[11] = test system: wild pansy (VIOTR, Viola tricolor); experiment: Greenhouse postemergence herbicidal effect; format: in vivo
Description: as §1, §2, §3, §4

COc1cc(OC)nc(Sc2cccc3c2C(=O)OC3C)n1 (centres unmarked) [Pyriftalid, pyriftalid]
% visual injury, Obs ([1]; 30 g/ha): 23% | % visual injury, Obs ([2]; 30 g/ha): 0% | % visual injury, Obs ([3]; 30 g/ha): 0% | % visual injury, Obs ([4]; 30 g/ha): 18% | pest or weed control at 30 g/ha ([5]; Bassia scoparia, post-emergence, 30 g/ha, read-out: % visual injury, Obs): 0% | % visual injury, Obs (spring wheat (TRZAS); 30 g/ha): 0% | % visual injury, Obs (spring barley (HORVS); 30 g/ha): 5%

CON=C(C)c1cccc(Oc2nc(OC)cc(OC)n2)c1C(=O)O (mixture of isomers) [Pyriminobac, pyriminobac]
% visual injury, Obs ([1]; 17.5 g/ha): 5% | % visual injury, Obs ([2]; 17.5 g/ha): 0% | % visual injury, Obs ([3]; 17.5 g/ha): 5% | % visual injury, Obs ([4]; 17.5 g/ha): 0% | pest or weed control at 17.5 g/ha ([6]; Cirsium arvense, post-emergence, read-out: % visual injury, Obs): 0% | pest or weed control at 17.5 g/ha ([5]; Bassia scoparia, post-emergence, read-out: % visual injury, Obs): 0% | % visual injury, Obs ([7]; 17.5 g/ha): 5% | % visual injury, Obs (spring wheat (TRZAS); 17.5 g/ha): 0% | % visual injury, Obs (spring barley (HORVS); 17.5 g/ha): 0%

COc1nn(C(=O)NS(=O)(=O)c2c(C(=O)O)csc2C)c(=O)n1C [Thiencarbazone, thiencarbazone]
% visual injury ([8]; Thiencarbazone 5 g/ha): 97% | % visual injury Obs ([8]; Thiencarbazone 10 g/ha): 98% | % visual injury ([1]; Thiencarbazone 5 g/ha): 95% | % visual injury Obs ([1]; Thiencarbazone 10 g/ha): 90% | % visual injury ([2]; Thiencarbazone 5 g/ha): 53% | % visual injury ([9]; Thiencarbazone 5 g/ha): 89% | % visual injury Obs ([9]; Thiencarbazone 10 g/ha): 95% | % visual injury ([3]; Thiencarbazone 5 g/ha): 55% | % visual injury Obs ([3]; Thiencarbazone 10 g/ha): 80% | % visual injury ([10]; Thiencarbazone 5 g/ha): 83% | % visual injury Obs ([10]; Thiencarbazone 10 g/ha): 98% | % visual injury ([6]; Thiencarbazone 5 g/ha): 10% | % visual injury Obs ([6]; Thiencarbazone 10 g/ha): 45% | % visual injury ([5]; Thiencarbazone 5 g/ha): 25% | % visual injury Obs ([5]; Thiencarbazone 10 g/ha): 45% | % visual injury ([7]; Thiencarbazone 5 g/ha): 60% | % visual injury Obs ([7]; Thiencarbazone 10 g/ha): 83% | % visual injury (spring wheat (TRZAS); in vivo): 0% | % visual injury Obs (spring wheat (TRZAS); in vivo): 0% | % visual injury (spring barley (HORVS); in vivo): 0% | % visual injury Obs (spring barley (HORVS); in vivo): 8%

COCc1cnc(C2=NC(C)(C(C)C)C(=O)N2)c(C(=O)O)c1 (centres unmarked) [Imazamox, imazamox]
% visual injury, Obs ([11]; 17.5 g/ha): 75% | pest or weed control at 17.5 g/ha ([6]; Cirsium arvense, post-emergence, 17.5 g/ha, read-out: % visual injury, Obs): 63%

imazamethabenz
Obs % visual injury ([8]; BRSNW, Imazamethabenz 200 g/ha): 53% | % visual injury ([8]; Imazamethabenz 100 g/ha): 35% | % visual injury ([1]; Imazamethabenz 100 g/ha): 68% | Obs % visual injury ([1]; SINAR, Imazamethabenz 200 g/ha): 75% | % visual injury ([2]; Imazamethabenz 100 g/ha): 0% | Obs % visual injury ([2]; SASKR, Imazamethabenz 100 g/ha): 13% | % visual injury ([9]; Imazamethabenz 100 g/ha): 70% | Obs % visual injury ([9]; POLCO, Imazamethabenz 200 g/ha): 88% | % visual injury ([3]; Imazamethabenz 100 g/ha): 0% | Obs % visual injury ([3]; MATCH, Imazamethabenz 200 g/ha): 5% | Obs % visual injury ([10]; AMARE, Imazamethabenz 200 g/ha): 5% | % visual injury ([10]; Imazamethabenz 100 g/ha): 0% | Obs % visual injury ([6]; Imazamethabenz 100 g/ha): 5% | Obs % visual injury ([6]; Imazamethabenz 200 g/ha): 5% | % visual injury ([6]; Imazamethabenz 100 g/ha): 0% | % visual injury ([5]; Imazamethabenz 100 g/ha): 0% | Obs % visual injury ([5]; KCHSC, Imazamethabenz 200 g/ha): 0% | Obs % visual injury ([7]; Imazamethabenz 100 g/ha): 0% | Obs % visual injury ([7]; Imazamethabenz 200 g/ha): 0% | % visual injury ([7]; Imazamethabenz 100 g/ha): 0% | % visual injury (spring wheat (TRZAS); Imazamethabenz 100 g/ha): 0% | Obs % visual injury (spring wheat (TRZAS); Imazamethabenz 100 g/ha): 0% | Obs % visual injury (spring wheat (TRZAS); Imazamethabenz 200 g/ha): 0% | Obs % visual injury (spring barley (HORVS); Imazamethabenz 100 g/ha): 0% | Obs % visual injury (spring barley (HORVS); Imazamethabenz 200 g/ha): 0% | % visual injury (spring barley (HORVS); Imazamethabenz 100 g/ha): 0%

CC(C)C1(C)N=C(c2ncccc2C(=O)O)NC1=O (centres unmarked) [Imazapyr, imazapyr]
% visual injury, Obs ([11]; 140 g/ha): 63% | pest or weed control at 140 g/ha ([6]; Cirsium arvense, post-emergence, 140 g/ha, read-out: % visual injury, Obs): 80% | pest or weed control at 140 g/ha ([5]; Bassia scoparia, post-emergence, 140 g/ha, read-out: % visual injury, Obs): 54%

CCOc1nc(F)cc2nc(S(=O)(=O)Nc3c(Cl)cccc3Cl)nn12 [Diclosulam, diclosulam]
% visual injury Obs ([1]; Diclosulam 17.5 g/ha): 100% | % visual injury Obs ([2]; Diclosulam 17.5 g/ha): 25% | % visual injury Obs ([9]; Diclosulam 17.5 g/ha): 98% | % visual injury Obs ([3]; Diclosulam 17.5 g/ha): 68% | % visual injury Obs ([4]; Diclosulam 17.5 g/ha): 100% | % visual injury Obs ([10]; Diclosulam 17.5 g/ha): 85% | % visual injury Obs ([5]; Diclosulam 17.5 g/ha): 0% | % visual injury Obs ([7]; Diclosulam 17.5 g/ha): 0%

COc1cc(OC)nc(NC(=O)NS(=O)(=O)N(C)S(C)(=O)=O)n1 [Amidosulfuron, amidosulfuron]
% visual injury ([8]; Amidosulfuron 45 g/ha): 98% | % visual injury ([1]; Amidosulfuron 45 g/ha): 82% | % visual injury ([9]; Amidosulfuron 45 g/ha): 55% | % visual injury, Obs ([11]; 22.5 g/ha): 18% | % visual injury ([3]; Amidosulfuron 45 g/ha): 50% | % visual injury, Obs ([4]; 22.5 g/ha): 98% | % visual injury ([10]; Amidosulfuron 45 g/ha): 100% | % visual injury ([6]; Amidosulfuron 45 g/ha): 18% | pest or weed control at 22.5 g/ha ([6]; Cirsium arvense, post-emergence, 22.5 g/ha, read-out: % visual injury, Obs): 15% | % visual injury ([5]; Amidosulfuron 45 g/ha): 5% | pest or weed control at 22.5 g/ha ([5]; Bassia scoparia, post-emergence, 22.5 g/ha, read-out: % visual injury, Obs): 15% | % visual injury ([7]; Amidosulfuron 45 g/ha): 25%

CCOc1nc(F)cc2nc(S(=O)(=O)Nc3c(Cl)cccc3C(=O)O)nn12 [Cloransulam, cloransulam]
% visual injury Obs ([1]; Cloransulam 17.5 g/ha): 97% | % visual injury Obs ([2]; Cloransulam 17.5 g/ha): 25% | % visual injury Obs ([9]; Cloransulam 17.5 g/ha): 80% | % visual injury Obs ([3]; Cloransulam 17.5 g/ha): 40% | % visual injury Obs ([4]; Cloransulam 17.5 g/ha): 100% | % visual injury Obs ([10]; Cloransulam 17.5 g/ha): 15% | % visual injury Obs ([5]; Cloransulam 17.5 g/ha): 0% | % visual injury Obs ([7]; Cloransulam 17.5 g/ha): 0% | % visual injury Obs (spring wheat (TRZAS); Cloransulam 17.5 g/ha): 0% | % visual injury Obs (spring barley (HORVS); Cloransulam 17.5 g/ha): 15%
